Literature values, collected in patent US6191117A, “Methods of producing weight loss and treatment of obesity” (priority 2000, dated 2001).
Entries after “also recorded” stand apart in the source; their conditions may differ. Like-named read-outs stand apart in the source and are kept apart here.

Legend:
[1] = test system: kainate/AMPA receptor
[2] = test system: young healthy adults; details: acute doses and 2- and 4-week test periods
[3] = test system: patients with seizures
[4] = test system: carbonic anhydrase
[5] = test system: NMDA receptor
[6] = test system: seizure patients; details: for patients with weight decrease: adjunctive therapy, control 3%
[7] = test system: cerebral GABA; details: within three hours of oral administration
[8] = test system: carbonic anhydrase CA-IV; details: compared with acetozolamide
[9] = test system: carbonic anhydrase CA-II; details: compared with acetozolamide
[10] = test system: sodium channel
[11] = test system: GABA receptor
[12] = test system: human plasma proteins
[13] = test system: L-type calcium channels
[14] = test system: epileptic patients
[15] = test system: patients treated for epilepsy
[16] = test system: epileptic patients; details: human, in vivo
[17] = another study, epileptic patients
[18] = clinical trials on seizure patients

Compound: CC1(C)O[C@@H]2[C@@H](CO[C@@]3(COS(N)(=O)=O)OC(C)(C)O[C@@H]23)O1 [TPM, 2,3:4,5-DI-O-isolpropylidene-B-D-fructopyranose sulfamate]
- activity at the kainate/AMPA receptor [1]: antagonizing the kainate/AMPA
- attention and word fluency [2]: statistically significant declines on measures of attention and word fluency
- dose dependence of common adverse events ([3]; 200 to 400 mg/day): did not appear to be dose-related
- discontinuation due to adverse events ([3]; 200 to 400 mg/day adjunctive therapy): 11%
- common adverse events, controlled trials ([3]; 200 to 400 mg/day, adults): somnolence, dizziness, ataxia, speech disorders and related speech problems, psychomotor slowing, abnormal vision, difficulty with memory, paresthesia and diplopia
- most common dose-related adverse events ([3]; 200 to 1,000 mg/day): fatigue, nervousness, difficulty with concentration or attention, confusion, depression, anorexia, language problems, anxiety, mood problems, and weight decrease
- course of adverse events ([3]; 200 to 1,000 mg/day, rapid dose titration of 200 mg/day): abated after 4 months of treatment
- renal calculi incidence relative to similar untreated population ([3]; about, expected in a similar, untreated population): 2-4 times
- nonspecific CNS effects occasionally observed ([3]; add-on therapy): dizziness or imbalance, confusion, memory problems, and exacerbation of mood disturbances (i.e., irritability and depression)
- renal calculi (kidney stones) incidence ([3]; adults): 1.5%
- severity of somnolence and fatigue ([3]; clinical trials, early in therapy): generally mild to moderate
- dose dependence of fatigue incidence ([3]; dosages above 400 mg/day): increases at dosages above 400 mg/day
- central nervous system adverse events ([3]; human, in vivo): psychomotor slowing, difficulty with concentration, and speech or language problems, in particular, word-finding difficulty and somnolence and/or fatigue
- correlation of plasma concentrations with adverse events ([3]; human, in vivo): not correlated with the occurrence of adverse events
- dose dependence of somnolence incidence ([3]; human, in vivo): does not appear to be dose-related
- adverse events associated with discontinuing therapy ([3]; increased at dosages above 400 mg/day): somnolence, dizziness, anxiety, difficulty with concentration or attention, fatigue, and paresthesia
- post-marketing adverse experiences ([3]; post-marketing data): hepatic failure, hepatitis, pancreatitis, and renal tubular acidosis
- carbonic anhydrase inhibition [4]: weak carbonic anhydrase inhibitor
- effect on urinary citrate excretion and urinary pH [4]: reducing urinary citrate excretion and by increasing urinary pH
- activity at the NMDA receptor [5]: no effect on the activity of N-methyl-D-aspartate (NMDA)
- patients with weight decrease ([6]; 200-400 mg/day): 9%
- patients with weight decrease ([6]; 600-1,000 mg/day): 13%
- weight loss with valproate or valproate plus carbamazepine co-treatment ([6]; also treated with valproate, or valproate with carbamazepine): tended to be higher
- amount of weight increase ([6]; another study, 2/12 patients): 12-25 pounds
- amount of weight loss ([6]; another study, 5/12 patients): 12-42 pounds
- patients with weight increase [6, 17]: 2/12
- patients with weight loss [6, 17]: 5/12
- average decline from baseline weight [6, 18]: 2-8%
- average weight loss [6, 18]: 2 to 8 kg
- report of anorexia in patients with weight loss ([6]; human, in vivo): more likely to report anorexia or loss of appetite
- time to peak of weight loss ([6]; human, in vivo): 12-15 months
- body weight after prolonged therapy ([6]; prolonged therapy): gradually returning toward pre-topiramate levels
- patients with weight loss, long-term study ([6]; treated for up to 2.2 years): 26%
- brain levels of cerebral GABA [7]: acutely increase brain levels of cerebral GABA
- time to peak (TTP) plasma concentrations (400 mg dose): about 2 hours
- dose recovered in urine (100-mg dose): 81-95%
- linearity of pharmacokinetics (200 to 800 mg/day): linear with dose proportional increases in plasma concentration
- route of elimination (TPM and its metabolites): predominantly renal
- increase of plasma concentrations (hepatic impairment): 29%
- clearance in hepatically impaired subjects (hepatically impaired subjects): may be decreased
- extent of metabolism (in vivo): not extensively metabolized
- metabolites identified in humans (in vivo): Six metabolites
- renal tubular reabsorption (in vivo): evidence of renal tubular reabsorption
- routes of metabolite formation (in vivo): hydroxylation, hydrolysis, and glucuronidation
- plasma levels in moderate or severe renal impairment (moderate or severe renal impairment): plasma levels are increased
- reduction of clearance (moderate renal impairment (creatinine clearance 30-69 mL/min/1.73 m^2) vs normal): 42%
- eliminated unchanged in the urine (of an administered dose): approximately 70%
- absorption (oral): rapid; also recorded: nearly complete
- elimination half-life (patients with normal renal function): 20 to 30 h
- dose excreted as unchanged TPM (predominantly renal elimination): 50-80%
- reduction of clearance (severe renal impairment (creatinine clearance <30 mL/min/1.73 m^2) vs normal): 54%
- mean plasma concentration half-life (single or multiple doses): 21 h
- relative bioavailability, effect of food (tablet): not affected by food
- inhibition of CA-IV [8]: weaker than that of acetozolamide
- inhibition of CA-II [9]: weaker than that of acetozolamide
- action on sodium channel [10]: voltage-sensitive sodium channel blocking action
- action on GABA [11]: potentiation of the effects of GABA
- bound to human plasma proteins ([12]; 1-250 μg/ml): 13-17%
- plasma protein binding ([12]; concentration not given): approximately 15%

Compound: NC(=O)OCC(COC(N)=O)c1ccccc1 [FBM]
- activity at the kainate/AMPA receptor [1]: interaction at the kainate/AMPA receptor
- interaction at L-type calcium channels [13]: an interaction at the L-type calcium channels
- activity at the NMDA receptor [5]: glycine site NMDA antagonist
- aplastic anemia and hepatic failure, 1994 reports ([14]; 1994 reports): causing aplastic anemia and hepatic failure
- thrombocytopenia and neutropenia ([14]; add-on therapy, Lennox-Gestalt Syndrome, prior to FDA approval): Several mild cases of thrombocytopenia and neutropenia
- aplastic anemia or hepatic dysfunction after FDA warning ([14]; adjunctive FBM, refractory epilepsy, serum levels monitored): No cases of aplastic anemia or hepatic dysfunction
- safety of long usage ([14]; adjunctive therapy, at least one year): relatively safe after usage for at least one year
- aplastic anemia or hepatic dysfunction prior to approval ([14]; prior to drug approval): no reported cases of aplastic anemia or hepatic dysfunction
- aplastic anemia attributable to FBM monotherapy ([14]; recent analysis): only several cases of aplastic anemia
- drug interactions ([14]; with other antiepileptic drugs): elevation of dilantin, depakote, phenobarbitol levels and the toxic epoxide metabolite of tegretol
- weight loss ([15]; FBM monotherapy, non-obese patients): 5%
- course of weight loss ([15]; add-on therapy, partial epilepsy, non-obese patients): transient and returned to baseline after twenty weeks
- anorexia and weight loss ([15]; patients treated for epilepsy): induce anorexia and weight loss
- action on sodium channel [10]: modulation of the Na++ channel conductance
- cognition and fine motor function [16]: increase both cognition and fine motor function
- action on GABA [11]: facilitation of the GABA receptor
